{
  "source": "patent US20190194607A1",
  "about": "“HIGHLY FUNCTIONAL LIVER CELLS DERIVED FROM PLURIPOTENT STEM CELLS, METHOD FOR PRODUCING SAME, AND METHOD FOR TESTING METABOLISM/TOXICITY OF DRUG” (DNAVEC CORPORATION, priority 2011, published 2019)",
  "key": {"[1]": {"tested_on": "hepatocytes derived from a #40 cell line", "assay": "PGE1 pretreatment before D-GalN administration: deviation enzymes in culture supernatant", "format": "cell-based, human", "details": "4 mM PGE1 pretreatment, 37° C. for 4 hours, then D-GalN administration; FIG. 16", "description": "(§1) D-Galactosamine (D-GalN), which is known to have toxicity to hepatocytes, was added to pluripotent stem cell-derived hepatocytes at a final concentration of 25 mM, followed by culture at 37° C. After 24 hours, 1.5 mL of culture supernatant was collected and was centrifuged at 15000 rpm at 4° C. to completely remove cell components. The concentrations of liver-derived deviation enzymes contained in the supernatant, i.e., glutamic oxaloacetic transaminase (GOT), glutamic pyruvic transaminase (GPT), γ-glutamyl transpeptidase (y-GTP), leucine aminopeptidase (LAP), lactate dehydrogenase (LDH), and LDH isozyme (LDH 1 to 5), were measured (performed at BML Inc., Shibuya, Tokyo, Japan).\nThat is, 4 mM PGE1 was added to hepatocytes derived from a #40 cell line in advance, and the hepatocytes were cultured at 37° C. for 4 hours and were subjected to a D-GalN administration experiment as in above. […] Similar tendencies were detected in the samples of hepatocyte differentiation induction from other human iPS cell lines and human ES cell lines."}, "HepG2 cells": {"tested_on": "HepG2 cells", "assay": "Drug toxicity test: deviation enzymes in culture supernatant, HepG2 cells", "format": "cell-based, human", "details": "cultured in the presence of D-GalN; FIG. 15(H)", "description": "(§2) The HepaRG cells were cultured in accordance with the protocol of BIOPREDIC international. The HepG2 cells were purchased from Health Science Research Resources Bank, and the human primary cultured adult hepatocyte cell line was purchased from DS Pharma Biomedical Co., Ltd. (Osaka, Japan). They were cultured using a CS-C medium kit of Cell Systems Corporation (Kirkland, WA, USA). In the figure, 253G1 refers to a human iPS cell line established at Kyoto University, #40 refers to a human iPS cell line established at National Center for Child Health and Development, SeV refers to an iPS cell line induced using a SeV vector, ES-K1 refers to a human ES cell line established at Kyoto University, and CTL is an abbreviation of control.\nas §1"}, "[2]": {"tested_on": "undifferentiated ES cells", "assay": "Drug toxicity test: deviation enzymes in culture supernatant, undifferentiated cells of FIG. 15(D)", "format": "cell-based, human", "details": "D-GalN 25 mM, 24 hours"}, "[3]": {"tested_on": "undifferentiated SeV-iPS cells", "assay": "Drug toxicity test: deviation enzymes in culture supernatant, undifferentiated SeV-iPS cells", "format": "cell-based, human", "details": "cultured in the presence of D-GalN; FIG. 15(F)"}, "[4]": {"tested_on": "SeV-iPS-derived hepatocytes", "assay": "Drug toxicity test: deviation enzymes in culture supernatant, SeV-iPS-derived hepatocytes", "format": "cell-based, human", "details": "cultured in the presence of D-GalN; FIG. 15(E)", "description": "as §1"}, "[5]": {"tested_on": "hepatocytes derived from human ES cells (KhES-1 cell line)", "assay": "Drug toxicity test: liver deviation enzymes in culture supernatant, human ES cell-derived hepatocytes", "format": "cell-based", "details": "D-GalN 25 mM, 24 hours; hepatocytes 28th day from differentiation induction; FIG. 15(A)", "description": "as §1"}, "[6]": {"tested_on": "undifferentiated ES cells", "assay": "Drug toxicity test: deviation enzymes in culture supernatant, undifferentiated human ES cells", "format": "cell-based", "details": "D-GalN 25 mM, 24 hours; FIG. 15(B)"}, "HepaRG cells": {"tested_on": "HepaRG cells", "assay": "Drug toxicity test: deviation enzymes in culture supernatant, HepaRG cells", "format": "cell-based, human", "details": "cultured in the presence of D-GalN; FIG. 15(G)", "description": "as §2, §1"}, "[7]": {"tested_on": "hepatocytes derived human iPS cells (#40)", "assay": "Drug toxicity test: deviation enzymes in culture supernatant, human iPS cell-derived hepatocytes", "format": "cell-based", "details": "D-GalN 25 mM, 24 hours; FIG. 15(C)", "description": "as §1"}},
  "data": [
    {"compound": "CCCCC[C@H](O)/C=C/[C@H]1[C@H](O)CC(=O)[C@@H]1CCCCCCC(=O)O", "note": "[PGE1, prostaglandin E1]", "values": [
      {"measurement": "levels of all the deviation enzymes from the liver detected in the culture supernatant after D-GalN", "setting": "[1]", "result": "significantly suppressed"}
    ]},
    {"compound": "N[C@H]1C(O)O[C@H](CO)[C@H](O)[C@@H]1O", "note": "(stereo partly drawn) [D-GalN, D-Galactosamine]", "values": [
      {"measurement": "level of GOT in the culture supernatant", "setting": "HepG2 cells", "result": "increased"},
      {"measurement": "level of GPT in the culture supernatant", "setting": "HepG2 cells", "result": "increased"},
      {"measurement": "level of LAP in the culture supernatant", "setting": "HepG2 cells", "result": "did not increase"},
      {"measurement": "level of LDH-5 in the culture supernatant", "setting": "HepG2 cells", "result": "increased"},
      {"measurement": "level of γ-GTP in the culture supernatant", "setting": "HepG2 cells", "result": "did not increase"},
      {"measurement": "level of GOT in culture supernatant", "setting": "[2]", "result": "did not increase"},
      {"measurement": "level of GPT in culture supernatant", "setting": "[2]", "result": "did not increase"},
      {"measurement": "level of LAP in culture supernatant", "setting": "[2]", "result": "did not increase"},
      {"measurement": "level of LDH in culture supernatant", "setting": "[2]", "result": "did not increase"},
      {"measurement": "level of γ-GTP in culture supernatant", "setting": "[2]", "result": "did not increase"},
      {"measurement": "level of GOT in the culture supernatant", "setting": "[3]", "result": "did not increase"},
      {"measurement": "level of GOT in the culture supernatant", "setting": "[4]", "result": "increased"},
      {"measurement": "LDH isozyme pattern", "setting": "[5]", "result": "“liver damage-type” pattern in which type 4 and type 5 are dominant"},
      {"measurement": "level of GOT in culture supernatant", "setting": "[5]", "result": "increased"},
      {"measurement": "level of LAP in culture supernatant", "setting": "[5]", "result": "increased"},
      {"measurement": "level of LDH in culture supernatant", "setting": "[5]", "result": "increased"},
      {"measurement": "level of γ-GTP in culture supernatant", "setting": "[5]", "result": "increased"},
      {"measurement": "levels of all of the deviation enzymes in culture supernatant", "setting": "[6]", "result": "did not increase"},
      {"measurement": "level of GOT in the culture supernatant", "setting": "HepaRG cells", "result": "increased"},
      {"measurement": "level of GPT in the culture supernatant", "setting": "HepaRG cells", "result": "increased"},
      {"measurement": "level of LAP in the culture supernatant", "setting": "HepaRG cells", "result": "increased"},
      {"measurement": "level of LDH-5 in the culture supernatant", "setting": "HepaRG cells", "result": "increased"},
      {"measurement": "level of γ-GTP in the culture supernatant", "setting": "HepaRG cells", "result": "did not increase"},
      {"measurement": "LDH isozyme pattern", "setting": "[7]", "result": "“liver damage-type” pattern in which type 4 and type 5 are dominant"},
      {"measurement": "level of GOT in culture supernatant", "setting": "[7]", "result": "increased"},
      {"measurement": "level of GPT in culture supernatant", "setting": "[7]", "result": "increased"},
      {"measurement": "level of LAP in culture supernatant", "setting": "[7]", "result": "increased"},
      {"measurement": "level of LDH in culture supernatant", "setting": "[7]", "result": "increased"},
      {"measurement": "level of γ-GTP in culture supernatant", "setting": "[7]", "result": "increased"}
    ]}
  ]
}
